Publication PMC5075806, “SIKs control osteocyte responses to parathyroid hormone” (Nature Communications, 2016)

Key:
SIK3 = SIK3 (Homo sapiens, UniProt Q9Y2K2); experiment: DiscoverX scanEDGE competition binding panel at […] (SIK3 listed as QSK); value in Supplementary Table […]
SIK2 = SIK2 (Homo sapiens, UniProt Q9H0K1); experiment: DiscoverX competition binding assay with DNA/phage-tagged kinase, qPCR readout, Kd curves
Sequence of SIK2 (Q9H0K1 whole entry): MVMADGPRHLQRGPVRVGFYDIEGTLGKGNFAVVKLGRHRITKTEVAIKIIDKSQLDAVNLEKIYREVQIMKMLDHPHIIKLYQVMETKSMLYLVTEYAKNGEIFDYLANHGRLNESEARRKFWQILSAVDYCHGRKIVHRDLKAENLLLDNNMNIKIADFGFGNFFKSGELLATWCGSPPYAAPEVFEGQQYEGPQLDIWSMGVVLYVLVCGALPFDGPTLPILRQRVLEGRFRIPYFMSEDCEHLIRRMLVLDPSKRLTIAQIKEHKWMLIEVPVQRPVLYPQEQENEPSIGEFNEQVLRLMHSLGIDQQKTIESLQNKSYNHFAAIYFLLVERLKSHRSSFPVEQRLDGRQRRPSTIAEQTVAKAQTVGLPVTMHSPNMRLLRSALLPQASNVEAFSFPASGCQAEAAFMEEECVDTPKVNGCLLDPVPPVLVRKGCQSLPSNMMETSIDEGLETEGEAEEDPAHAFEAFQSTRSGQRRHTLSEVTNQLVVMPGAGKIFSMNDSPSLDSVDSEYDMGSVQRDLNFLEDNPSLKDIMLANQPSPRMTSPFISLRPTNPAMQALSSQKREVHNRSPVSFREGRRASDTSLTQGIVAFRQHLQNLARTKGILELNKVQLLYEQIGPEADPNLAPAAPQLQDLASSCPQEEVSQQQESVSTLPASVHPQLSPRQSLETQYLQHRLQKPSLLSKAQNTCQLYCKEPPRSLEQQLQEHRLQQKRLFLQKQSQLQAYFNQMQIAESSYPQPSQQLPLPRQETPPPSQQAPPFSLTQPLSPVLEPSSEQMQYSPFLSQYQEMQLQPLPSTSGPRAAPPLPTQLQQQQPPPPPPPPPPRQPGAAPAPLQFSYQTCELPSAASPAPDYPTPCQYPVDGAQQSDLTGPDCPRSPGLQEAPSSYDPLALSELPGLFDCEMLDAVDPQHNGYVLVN

Sequence of SIK3 (Q9Y2K2 whole entry): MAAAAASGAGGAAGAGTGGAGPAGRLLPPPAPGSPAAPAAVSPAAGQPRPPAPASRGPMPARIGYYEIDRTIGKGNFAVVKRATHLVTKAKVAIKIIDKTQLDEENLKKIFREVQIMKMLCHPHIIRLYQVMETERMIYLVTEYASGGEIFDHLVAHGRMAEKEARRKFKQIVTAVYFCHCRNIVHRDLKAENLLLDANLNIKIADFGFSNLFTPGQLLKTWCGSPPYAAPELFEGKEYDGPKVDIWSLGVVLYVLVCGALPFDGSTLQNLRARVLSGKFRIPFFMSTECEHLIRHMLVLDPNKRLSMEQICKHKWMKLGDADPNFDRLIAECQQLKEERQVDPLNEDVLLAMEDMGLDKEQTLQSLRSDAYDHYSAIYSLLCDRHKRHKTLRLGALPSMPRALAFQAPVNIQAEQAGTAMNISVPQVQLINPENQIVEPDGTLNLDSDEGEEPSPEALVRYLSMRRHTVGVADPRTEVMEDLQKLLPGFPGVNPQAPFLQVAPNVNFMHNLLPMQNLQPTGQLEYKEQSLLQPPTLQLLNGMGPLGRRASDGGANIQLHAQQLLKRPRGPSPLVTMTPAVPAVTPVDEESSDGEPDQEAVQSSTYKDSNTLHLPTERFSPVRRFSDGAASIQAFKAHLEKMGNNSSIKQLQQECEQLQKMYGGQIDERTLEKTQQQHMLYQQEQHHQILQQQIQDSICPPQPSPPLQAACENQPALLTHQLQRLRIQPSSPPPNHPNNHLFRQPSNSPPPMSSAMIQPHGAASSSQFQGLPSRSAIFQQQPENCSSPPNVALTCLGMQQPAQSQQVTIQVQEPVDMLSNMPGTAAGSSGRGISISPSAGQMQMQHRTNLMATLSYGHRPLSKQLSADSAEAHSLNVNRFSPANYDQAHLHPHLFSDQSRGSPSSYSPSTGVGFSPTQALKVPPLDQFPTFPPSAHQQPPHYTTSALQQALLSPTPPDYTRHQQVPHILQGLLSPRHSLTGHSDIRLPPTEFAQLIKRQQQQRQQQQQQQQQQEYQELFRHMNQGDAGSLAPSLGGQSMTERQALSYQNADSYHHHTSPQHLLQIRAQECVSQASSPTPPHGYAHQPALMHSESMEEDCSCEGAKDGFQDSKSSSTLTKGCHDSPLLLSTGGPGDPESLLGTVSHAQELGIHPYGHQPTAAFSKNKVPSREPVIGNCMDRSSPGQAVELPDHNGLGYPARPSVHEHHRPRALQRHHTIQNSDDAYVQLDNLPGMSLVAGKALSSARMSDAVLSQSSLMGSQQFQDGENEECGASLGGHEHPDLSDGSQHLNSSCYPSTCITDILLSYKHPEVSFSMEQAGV

COc1ccc(N2C(=O)N(c3c(C)cccc3C)Cc3cnc(Nc4ccc(C5CCN(C)CC5)cc4OC)nc32)c(OC)c1 [YKL-05-093]
DiscoverX scanEDGE competition binding panel at 71 nM (SIK3 listed as QSK); valu (SIK3): both inhibitors potently target SIK3 in addition to SIK2
Kd (SIK2): 7.1 nM
